Measurements published in publication PMC7148434, “ACE-domain selectivity extends beyond direct interacting residues at the active site” (Biochemical Journal, 2020).
Square brackets hold non-standard residues; d marks the D form. Ends that are not written are not given here. * marks the point of attachment. Dnp = O=[N+]([O-])c1ccc(*)c([N+](=O)[O-])c1; 2Abz = Nc1ccccc1C(=O)O

Columns and labels:
[1] = target: S′-nACE (S260T, E262S, D354E, S357V, T358V and E431D) (Homo sapiens, UniProt P12821, D383E/E291S/E460D/S289T/S386V/T387V); test: Inhibitor binding kinetics, modified Abz-FRK(Dnp)P-OH assay, S′ mutant; type: biochemical; details: for decrease in binding affinity compared with nACE: S′-nACE relative to nACE; for Selectivity (Ki cACE/Ki nACE or mutant): Ki cACE / Ki S′-nACE; for Ki: S′-nACE, Morrison plot, 50 mM HEPES pH 6.8, 200 mM NaCl, 10 μM ZnCl2, mean ± SD
Experimental: (§1) Serial dilutions of an appropriate range were prepared for each inhibitor in the aforementioned assay buffer. An appropriate concentration of enzyme was similarly prepared and incubated with an equal volume of inhibitor for 15 min at 22°C after which 20 μl volumes of the reactions were aliquoted to a 96-well plate. […] Control (zero inhibitor) reactions containing the appropriate concentration of methanol or DMSO (in the case of ketoACE-13 or omapatrilat, respectively) were included to correct for any possible vehicle-induced effects on the reaction rate.

[2] = target: S2-nACE (Y369F and R381E) (Homo sapiens, UniProt P12821, R410E/Y398F); test: Inhibitor binding kinetics, modified Abz-FRK(Dnp)P-OH assay, S2 mutant; type: biochemical; design: The truncated (single domain) wild-type N-domain (nACE), N-domain mutant constructs; made in house; host or cells: CHO-K1; details: for decrease in binding affinity compared with nACE: S2-nACE relative to nACE; for Selectivity (Ki cACE/Ki nACE or mutant): Ki cACE / Ki S2-nACE; for Ki: S2-nACE, Morrison plot, 50 mM HEPES pH 6.8, 200 mM NaCl, 10 μM ZnCl2, mean ± SD
Experimental: as §1

[3] = target: S2_S′-nACE (S260T, E262S, D354E, S357V, T358V, Y369F, R381E and E431D) (Homo sapiens, UniProt P12821, D383E/E291S/E460D/R410E/S289T/S386V/T387V/Y398F); test: Inhibitor binding kinetics, modified Abz-FRK(Dnp)P-OH assay, combined S2_S′ mutant; type: biochemical; design: The truncated (single domain) wild-type N-domain (nACE), N-domain mutant constructs; made in house; host or cells: CHO-K1; details: for binding affinity lower than that of cACE: S2_S′-nACE relative to cACE; for decrease in binding affinity compared with nACE: S2_S′-nACE relative to nACE; for Selectivity (Ki cACE/Ki nACE or mutant): Ki cACE / Ki S2_S′-nACE; for Ki: S2_S′-nACE, Morrison plot, 50 mM HEPES pH 6.8, 200 mM NaCl, 10 μM ZnCl2, mean ± SD
Experimental: as §1

cACE = cACE (Homo sapiens, UniProt P12821); test: Inhibitor binding kinetics, modified Abz-FRK(Dnp)P-OH assay, wild-type C-domain; type: biochemical; details: for Ki: cACE, Morrison plot, 50 mM HEPES pH 6.8, 200 mM NaCl, 10 μM ZnCl2, mean ± SD
Experimental: as §1

nACE [4] = target: nACE (Homo sapiens, UniProt P12821); test: Inhibitor binding kinetics, modified Abz-FRK(Dnp)P-OH assay, wild-type N-domain; type: biochemical; design: The truncated (single domain) wild-type N-domain (nACE); made in house; host or cells: CHO-K1; details: nACE; Morrison plot; 50 mM HEPES pH 6.8, 200 mM NaCl, 10 μM ZnCl2; mean ± SD
Experimental: as §1

nACE [5] = test: as above; type: biochemical; details: Ki cACE / Ki nACE (N-selectivity)
Experimental: as §1

[6] = Integrity of omapatrilat at ambient temperature monitored by HPLC (dimer formation); type: physicochemical
Experimental: The fluorogenic substrate Abz-FRK(Dnp)P-OH was a kind gift from Prof A.K. Carmona, Universidade Federal de São Paulo. The peptide was dissolved in 100% DMSO and the concentration determined by measuring the absorbance at 365 nm and extinction coefficient of 17 300 M^−1 cm^−1. Subsequent dilutions from the 1 mM stock of were made in assay buffer (50 mM HEPES, pH 6.8, 10 μM ZnCl2, 200 mM NaCl). […] KetoACE-13 was dissolved in 100% methanol to a stock concentration of 50 mM, followed by dilution in deionized distilled water to 10 mM. Since the dimerization of omapatrilat has been previously described, fresh 10 mM stocks of inhibitor were prepared in DMSO directly prior to kinetic analysis. The integrity of omapatrilat at ambient temperature was monitored at 50 µM by HPLC (Agilent 1260 Infinity HPLC System with a Poroshell 120 EC-C 18 column) over the timeframe of each assay, as previously described. A 20 µl injection volume was used with a 0.5 ml/min flow rate with A: 1% ACN, 0.1% TFA; B: 95% ACN, 0.1% TFA; and 0–100% B over 10 min; 214 nm.
Figure 2 . Effect of mutation on N-selective inhibition, integrity of omapatrilat at ambient temperature as monitored by HPLC and SDS–PAGE gel illustrating the decreased molecular mass of the active site mutant N389-S2_S′-nACE. (A) Inhibitor binding affinities (Ki values) for wild-type cACE or nACE mutants are shown on a log scale relative to nACE with error bars representing mean ± SD of at least two independent experiments. (B) Omapatrilat (50 μM in assay buffer) was analyzed using a Poroshell 120 EC-C 18 column on the Agilent 1260 infinity HPLC system. Twenty microliters of the sample was injected onto the column immediately after preparation or following incubation at ambient temperature for 1, 2 or 3 h. Conditions: A: 1% ACN, 0.1% TFA; B: 95% ACN, 0.1% TFA; 0–100% B over 10 min; 0.5 ml/min, 214 nm. […] (C) SDS–PAGE of purified nACE proteins (1) fully glycosylated S2_S′-nACE, (2) minimally glycosylated N389-nACE and (3) minimally glycosylated N389-S2_S′-nACE.

[7] = target: S2-nACE (N-domain mutant Y369F and R381E)
[8] = target: Wild-type C-domain of angiotensin-converting enzyme (cACE)
[9] = target: S2_S′-nACE (N-domain mutant S260T, E262S, D354E, S357V, T358V, Y369F, R381E and E431D)
[10] = target: S′-nACE (N-domain mutant S260T, E262S, D354E, S357V, T358V and E431D)
[11] = target: Wild-type N-domain of angiotensin-converting enzyme (nACE)

Chain of S2-nACE (Y369F and R381E) (P12821 40-624 Y398F/R410E): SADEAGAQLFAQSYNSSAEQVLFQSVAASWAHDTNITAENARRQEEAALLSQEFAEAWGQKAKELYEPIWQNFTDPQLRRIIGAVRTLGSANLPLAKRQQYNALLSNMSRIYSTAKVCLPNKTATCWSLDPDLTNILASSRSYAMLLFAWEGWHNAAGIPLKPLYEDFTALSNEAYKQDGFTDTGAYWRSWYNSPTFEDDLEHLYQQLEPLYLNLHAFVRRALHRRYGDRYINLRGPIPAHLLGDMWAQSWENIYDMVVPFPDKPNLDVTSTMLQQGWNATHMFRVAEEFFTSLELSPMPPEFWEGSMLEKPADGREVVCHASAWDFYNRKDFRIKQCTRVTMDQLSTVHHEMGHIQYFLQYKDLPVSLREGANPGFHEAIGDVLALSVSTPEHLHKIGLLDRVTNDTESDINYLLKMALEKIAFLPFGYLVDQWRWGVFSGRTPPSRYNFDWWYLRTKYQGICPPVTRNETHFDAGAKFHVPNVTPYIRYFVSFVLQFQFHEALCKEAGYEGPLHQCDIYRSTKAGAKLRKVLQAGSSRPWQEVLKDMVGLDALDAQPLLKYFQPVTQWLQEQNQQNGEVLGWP
Chain of nACE (Homo sapiens, UniProt P12821) (P12821 40-624 limits assumed): as the sequence (P12821 40-624 Y398F/R410E) above, with F359Y, E371R counted along it
Chain of S′-nACE (S260T, E262S, D354E, S357V, T358V and E431D) (P12821 40-624 S289T/E291S/D383E/S386V/T387V/E460D): as the sequence (P12821 40-624 Y398F/R410E) above, with S250T, E252S, D344E, S347V, T348V, F359Y, E371R, E421D counted along it
Chain of cACE (P12821 643-1222 limits assumed): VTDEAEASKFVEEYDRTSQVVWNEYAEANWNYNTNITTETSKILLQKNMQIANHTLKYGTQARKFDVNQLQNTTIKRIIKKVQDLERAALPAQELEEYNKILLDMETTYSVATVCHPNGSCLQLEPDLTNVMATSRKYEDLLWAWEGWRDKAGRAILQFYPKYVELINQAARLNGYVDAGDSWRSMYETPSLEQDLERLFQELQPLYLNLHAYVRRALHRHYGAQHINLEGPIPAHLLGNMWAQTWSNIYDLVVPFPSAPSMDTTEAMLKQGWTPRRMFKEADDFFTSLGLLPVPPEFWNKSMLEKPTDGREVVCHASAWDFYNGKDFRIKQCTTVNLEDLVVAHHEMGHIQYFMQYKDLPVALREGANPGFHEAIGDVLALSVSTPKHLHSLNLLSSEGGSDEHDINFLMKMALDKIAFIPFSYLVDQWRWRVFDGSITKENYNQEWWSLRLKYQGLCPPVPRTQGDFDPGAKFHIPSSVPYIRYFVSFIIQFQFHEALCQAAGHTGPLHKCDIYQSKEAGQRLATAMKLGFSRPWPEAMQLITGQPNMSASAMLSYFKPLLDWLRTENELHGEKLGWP
Chain of S2_S′-nACE (S260T, E262S, D354E, S357V, T358V, Y369F, R381E and E431D) (P12821 40-624 S289T/E291S/D383E/S386V/T387V/Y398F/R410E/E460D): as the sequence (P12821 40-624 Y398F/R410E) above, with S250T, E252S, D344E, S347V, T348V, E421D counted along it

Molecule | decrease in binding affinity compared with nACE [1] [fold] | decrease in binding affinity compared with nACE [2] [fold] | binding affinity lower than that of cACE [3] [fold] | decrease in binding affinity compared with nACE [3] [fold] | Ki (nACE [4]) [nM] | Selectivity (Ki cACE/Ki nACE or mutant) [1] | Ki [1] [nM] | Selectivity (Ki cACE/Ki nACE or mutant) (nACE [5]) | Selectivity (Ki cACE/Ki nACE or mutant) [2] | Ki [2] [nM] | Selectivity (Ki cACE/Ki nACE or mutant) [3] | Ki [3] [nM] | Selectivity (Ki cACE/Ki nACE or mutant) (cACE) | Ki (cACE) [nM] | other results
C[C@H](N[C@@H](CCc1ccccc1)C(=O)O)C(=O)N1CCC[C@H]1C(=O)O [Enalaprilat, enalaprilat, reference compound] | 2.5 | 2 | 19 | 4 | – | – | – | – | – | – | – | – | – | – | greater affinity to cACE than nACE (cACE; cACE relative to nACE): 5 fold
O=C(N[C@H]1CCS[C@H]2CCC[C@@H](C(=O)O)N2C1=O)[C@@H](S)Cc1ccccc1 [Omapatrilat, omapatrilat, reference compound] | – | – | – | – | 0.37 ± 0.05 | 1 | 0.49 ± 0.04 | 2 | 2 | 0.43 ± 0.13 | 2 | 0.29 ± 0.01 | 1 | 0.7 ± 0.09 | fraction of dimer detected ([6]; 50 μM in assay buffer (50 mM HEPES pH 6.8), immediately after solubilization): 2.56%; increase in fraction of dimer ([6]; 50 μM in assay buffer, after 1 h at ambient temperature): 0.86%; fraction of dimer detected ([6]; 50 μM in assay buffer, after 3 h of incubation at ambient temperature): 11%
CC(C)(C)OC(=O)NC(CC(=O)O)C(=O)NC(Cc1ccccc1)C(=O)CCC(=O)N1CCCC1C(=O)O (stereo not drawn) [KetoACE13] | 3 | – | 6 | – | 1000 ± 270 | 3 | 2990 ± 1000 | 8 | 0.5 | 17800 | 0.2 | 47800 | 1 | 8250 ± 430 | –
CC(NC(C(=O)O)C1CCCN1C(=O)C(N)CC(=O)O)C(=O)N1CCCC1C(=O)O (stereo not drawn) [SG6] | 11 | 474 | – | 784 | 0.093 ± 0.02 | 70 | 1.09 ± 0.1 | 825 | 1.7 | 44 ± 2.8 | 1.1 | 72.9 ± 7.5 | 1 | 76.8 ± 4.3 | –
[2Abz]FRK(Dnp)P-OH (N-terminus assumed; SMILES N=C(N)NCCC[C@H](NC(=O)[C@H](Cc1ccccc1)NC(=O)c1ccccc1N)C(=O)N[C@@H](CCCCNc1ccc([N+](=O)[O-])cc1[N+](=O)[O-])C(=O)N1CCC[C@H]1C(=O)O) [Abz-FRK(Dnp)P-OH] | – | – | – | – | – | – | – | – | – | – | – | – | – | – | Km of Abz-FRK(Dnp)P-OH hydrolysis (Michaelis-Menten model, initial velocities; 50 mM HEPES pH 6.8, 200 mM NaCl, 10 µM ZnCl2, ambient temperature) [7]: 11.9 μM; Km of Abz-FRK(Dnp)P-OH hydrolysis (Michaelis-Menten model, initial velocities; 50 mM HEPES pH 6.8, 200 mM NaCl, 10 µM ZnCl2, ambient temperature) [8]: 6.3 μM; Km of Abz-FRK(Dnp)P-OH hydrolysis (Michaelis-Menten model, initial velocities; 50 mM HEPES pH 6.8, 200 mM NaCl, 10 µM ZnCl2, ambient temperature) [9]: 12.4 μM; Km of Abz-FRK(Dnp)P-OH hydrolysis (Michaelis-Menten model, initial velocities; 50 mM HEPES pH 6.8, 200 mM NaCl, 10 µM ZnCl2, ambient temperature) [10]: 4.51 μM; Km of Abz-FRK(Dnp)P-OH hydrolysis (Michaelis-Menten model, initial velocities; 50 mM HEPES pH 6.8, 200 mM NaCl, 10 µM ZnCl2, ambient temperature) [11]: 7.54 μM
